Here are results for 41 compounds from patent US20060247223A1, “Non-imidazole alkylamines as histamine H3- receptor ligands and their therapeutic applications” (priority 1998, published 2006).

The structures appear in SMILES notation. Where a name gives a salt, the structure may show the parent alone. Read-outs that look alike come from different tables or passages of the source.

For series [1], the target named is T1, H3 receptor (Mus musculus, UniProt P58406).
T1 construct: estimated in vivo by the measurement of the tele-methylhistamine level variations in the brain of mice; from tissue; host or cells: mouse brain, in vivo after p.o. administration
T1 sequence (P58406 whole entry): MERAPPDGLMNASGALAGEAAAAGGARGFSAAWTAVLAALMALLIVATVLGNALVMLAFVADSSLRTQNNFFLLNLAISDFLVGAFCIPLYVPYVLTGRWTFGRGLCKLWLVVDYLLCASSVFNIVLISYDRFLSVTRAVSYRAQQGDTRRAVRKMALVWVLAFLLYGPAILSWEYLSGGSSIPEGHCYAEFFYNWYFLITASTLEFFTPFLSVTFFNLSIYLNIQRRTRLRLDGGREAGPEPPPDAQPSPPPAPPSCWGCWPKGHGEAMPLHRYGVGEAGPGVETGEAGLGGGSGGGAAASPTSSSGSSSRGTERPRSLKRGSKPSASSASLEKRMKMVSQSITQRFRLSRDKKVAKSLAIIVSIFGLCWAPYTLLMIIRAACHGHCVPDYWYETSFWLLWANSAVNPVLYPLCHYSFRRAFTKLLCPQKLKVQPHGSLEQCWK
Description: tele-methylhistamine level variations in the brain of mice after p.o. administration. The series is classed as in vivo. The conditions noted are these: for ED50: mouse, po, brain tele-methylhistamine level, dose responsible for an half maximal effect; for ED50 (mg/kg/p.o.): tele-methylhistamine level in brain, dose for half maximal effect. An excerpt:
At various time after p.o. administration of the. compounds, the effect of agonists and antagonists are evidenced by the decrease and increase respectively in telemethylhistamine level induced.
The changes are compared to those induced by reference compounds given in high dosage and this allows the calculation of the ED50 value for each compound which correspond to the dose responsible for an half maximal effect.

Series [2] addresses T2, H3 receptor (Rattus norvegicus, UniProt Q9QYN8).
T2 construct: release of neosynthesized tritiated histamine from rat cerebral cortex synaptosomes; from tissue; host or cells: rat cerebral cortex synaptosomes
The series can be described thus: release of neosynthesized tritiated histamine from rat cerebral cortex synaptosomes. The series is classed as biochemical.

The mark [3] stands for this setting: H3 receptor, rat cerebral cortex synaptosomes, reversal of (R)α-methylhistamine inhibition of tritiated histamine release, read-out: Ki.

T2 sequence (Q9QYN8 whole entry): as the sequence (P58406 whole entry) above, with A15T, T286A, G290A, H387R, V389I counted along it

A word on the melting point: it is the temperature of the solid-liquid transition. `CC1CCN(CCCOc2ccc([N+](=O)[O-])cc2)CC1` (as salt: oxalate) [Example 86, 1-[3-(4-nitrophenoxy)propyl]4-methylpiperidine] came in with a melting point of 119 to 121 °C.
`CCC(=O)c1ccc(OCCCN2CCCC(C)C2)cc1` (stereo not drawn) (as salt: oxalate) [Example 88, 1-[3-(4-propionylphenoxy)propyl]-3-methylpiperidine] registered a melting point of 135 to 136 °C.
Still for that read-out and setting: next, `O=C(c1ccc(OCCCN2CCCCC2)cc1)C1CCC1` (as salt: oxalate) [Example 89, 1-[3-(4-cyclobutylcarbonylphenoxy)propyl]piperidine]: 80 to 82 °C; `O=C(c1ccc(OCCCN2CCCCC2)cc1)C1CCCC1` (as salt: oxalate) [Example 90, 1-[3-(4-cyclopentylcarbonylphenoxy)propyl]piperidine]: 143 to 145 °C.
For `C[C@@H]1C[C@H](C)CN(CCCOc2ccc(C#N)cc2)C1` (as salt: oxalate) [Example 93, 1-[3-(4-cyanophenoxy)propyl]-cis-3,5-dimethylpiperidine], the melting point is 161 to 163 °C.
`CCC(=O)c1ccc(OCCCN2CCC(C)CC2)cc1` (as salt: oxalate) [Example 94, 1-[3-(4-propionylphenoxy)propyl]-4-methylpiperidine]: the melting point lay within 163 to 165 °C.
`CCC(=O)c1ccc(OCCCN2CCCCC2C)cc1` (stereo not drawn) (as salt: oxalate) [Example 95, 1-[3-(4-propionylphenoxy)propyl]-2-methylpiperidine] had a melting point of 92 to 94 °C.
In turn, `CCC(O)c1ccc(OCCCN2CCC(C)CC2)cc1` (stereo not drawn) (as salt: oxalate) [Example 97, 1-{3-[4-(1-hydroxypropyl)phenoxy]propyl}-4-methylpiperidine] showed a melting point of 182 to 183 °C.
Same read-out and setting: next, `CCC(=NOC)c1ccc(OCCCN2CCC(C)CC2)cc1` (as salt: oxalate) [Example 99, 1-[3-(4-propionylphenoxy)propyl]-4-methylpiperidine methoxime]: 179 to 181 °C.
`C[C@@H]1C[C@H](C)CN(CCCOc2ccc(C(=O)C3CC3)cc2)C1` (as salt: oxalate) [Example 102, 1-[3-(4-cyclopropylcarbonylphenoxy)propyl]-cis-3,5-dimethylpiperidine] gave a melting point of 130 to 132 °C.
On the same count and under the same terms, next, `COC(=O)c1ccc(OCCCN2CCCCC2)cc1` (as salt: oxalate) [Example 103, 1-[3-(4-carbomethoxyphenoxy)propyl]piperidine]: 156 to 158 °C.
`CCC(=NO)c1ccc(OCCCN2CCC(C)CC2)cc1` (as salt: oxalate) [Example 107] yielded a melting point of 157 to 160 °C.
Regarding `Brc1ccc(OCCCN2CCCCC2)cc1` (as salt: oxalate) [Example 108, 1-[3-(4-bromophenoxy)propyl]piperidine], the melting point lay within 175 to 177 °C.
On the same count and under the same terms, next, `O=[N+]([O-])c1ccc(OCCCN2CCCCC2)cc1` (as salt: oxalate) [Example 109, 1-[3-(4-nitrophenoxy)propyl]piperidine]: 148 to 151 °C.
Still for that read-out and setting: next, `CN(C)S(=O)(=O)c1ccc(OCCCN2CCCCC2)cc1` (as salt: oxalate) [Example 110, 1-[3-(4-N,N-dimethylsulfonamidophenoxy)propyl]piperidine]: 149 to 153 °C; `CC(C)c1ccc(OCCCN2CCCCC2)cc1` (as salt: oxalate) [Example 111]: 131 to 134 °C; `CCC(C)c1ccc(OCCCN2CCCCC2)cc1` (stereo not drawn) (as salt: oxalate) [Example 112, 1-[3-(4-sec-butylphenoxy)propyl]pipenidine]: 133 to 136 °C.
Compound `CCCc1ccc(OCCCN2CCCCC2)cc1` (as salt: oxalate) [Example 113, 1-[3-(4-propylphenoxy)propyl]piperidine] returned a melting point of 121 to 124 °C.
`CCc1ccc(OCCCN2CCCCC2)cc1` (as salt: oxalate) [Example 114, 1-[3-(4-ethylphenoxy)propyl]piperidine]: the melting point fell in the range of 148 to 151 °C.
Same read-out and setting: next, `CC[C@@H]1CC[C@H](C)N(CCCOc2ccc(C#N)cc2)C1` (relative stereo) (as salt: oxalate) [Example 91, 1-[3-(4-cyanophenoxy)propyl]-cis-2-methyl-5-ethylpiperidine]: 158 to 159 °C; `C[C@H]1C[C@H](C)CN(CCCOc2ccc(C#N)cc2)C1` (relative stereo) (as salt: oxalate) [Example 100, 1-[3-(4-cyanophenoxy)propyl]-trans-3,5-dimethylpiperidine]: 163 to 165 °C; `C[C@H]1C[C@H](C)CN(CCCOc2ccc(C(=O)C3CC3)cc2)C1` (relative stereo) (as salt: oxalate) [Example 101, 1-[3-(4-cyclopropanecarbonylphenoxy)propyl]-trans-3,5 dimethylpiperidine]: 136 to 138 °C.
The term ED50 denotes the dose at which the effect has come halfway, by size or by number of responders. Low values mean an effect at a small dose, high ones a need for a large dose. For `C[C@H]1C[C@H](C)CN(CCCOc2ccc(C(=O)C3CC3)cc2)C1` (relative stereo) [Example 101, 1-[3-(4-cyclopropanecarbonylphenoxy)propyl]-trans-3,5 dimethylpiperidine], in series [1], the ED50 amounted to 0.17 mg/kg.
With `C[C@H]1C[C@H](C)CN(CCCCCOc2ccccc2)C1` (stereo in doubt) (as salt: oxalate) [Example 12, 1-(5-phenoxypentyl)-3,5-trans-dimethyl-piperidine], the melting point was in the range of 154 to 155 °C.
On the same count and under the same terms, next, `CC(=O)c1ccc(OCCCN2C[C@@H](C)C[C@H](C)C2)cc1` (stereo in doubt) (as salt: oxalate) [Example 67, 1-[3-(4-acetylphenoxy)-propyl]-3,5-trans-dimethyl-piperidine]: 171 to 172 °C; `CC1CCCN(CCCCCOc2ccccc2)C1` (stereo not drawn) [Example 10, 1-(5-phenoxypentyl)-3-methyl-piperidine]: 140 to 141 °C.
As a reminder, the Ki is a measure of affinity in units of concentration, obtained from inhibition or displacement. Consider `O=[N+]([O-])c1ccc(OCCCCCN2CCCC2)cc1` [Example 18, 1-[5-(4-nitrophenoxy)-pentyl]-pyrrolidine], for which, in series [2] (setting [3]), the Ki amounted to 39 ± 11 nM. In series [1], the “ED50 (mg/kg/p.o.)” value was 1.1 mg/kg/p.o.
For `CCN(CC)CCCOc1ccc(C#N)cc1` [Example 43, N-[3-(4-cyanophenoxy)-propyl]-diethylamine], in that order: 95 ± 28 nM and 0.50 mg/kg/p.o.
In the case of `CCN(CC)CCCOc1ccc(C(C)=O)cc1` [Example 46, N-[3-(4-acetylphenoxy)-propyl]-diethylamine], the Ki in series [2] (setting [3]) stood at 20 ± 7 nM. For the same compound, the “ED50 (mg/kg/p.o.)” value in series [1] amounted to 0.44 mg/kg/p.o.
`CC(O)c1ccc(OCCCCCN2CCCC2)cc1` (stereo not drawn) [Example 50, 1-{5-[4-(1-hydroxyethyl)-phenoxy]-pentyl}-pyrrolidine]: the Ki in series [2] (setting [3]) came out at 28 ± 7 nM. For the same compound, the “ED50 (mg/kg/p.o.)” value in series [1] was 1.0 mg/kg/p.o.
The like results for `CCN(CC)CCCCOc1ccc(C#N)cc1` [Example 56, N-[4-(4-cyanophenoxy)-butyl]-diethylamine] were, in that order, 62 ± 15 nM and 1.1 mg/kg/p.o.
Compound `N#Cc1ccc(OCCCN2CCCCC2)cc1` [Example 59, 1-[3-(4-cyanophenoxy)propyl]piperidine] came in with a Ki in series [2] of 11 ± 2 nM. In series [1], the ED50 was found to be 0.02 mg/kg and the “ED50 (mg/kg/p.o.)” value is listed as 0.20 mg/kg/p.o.
With `N#Cc1ccc(OCCCN2CCCCCC2)cc1` [Example 60, N-[3-(4-cyanophenoxy)-propyl]-hexamethyleneimine], the inhibition constant (Ki) in series [2] (setting [3]) stood at 8.7 ± 2.1 nM. Besides, in series [1], the “ED50 (mg/kg/p.o.)” value is reported as 0.64 mg/kg/p.o.
For `CCN(CC)CCCOc1ccc(C(C)O)cc1` (stereo not drawn) [Example 63, N-3-[4-(1-hydroxyethyl)-phenoxy]-propyl-diethylamine], in that order: 60 ± 18 nM and 0.45 mg/kg/p.o.
For `CCN(CC)CCCOc1ccc(/C(C)=N/O)cc1` [Example 64, 4-(3-diethylaminopropoxy)-acetophenone-oxime], in that order: 2.7 ± 0.9 nM and 0.8 mg/kg/p.o.
As for `CC(=O)c1ccc(OCCCN2CCCC(C)C2)cc1` (stereo not drawn) [Example 66, 1-[3-(4-acetylphenoxy)-propyl]-3-methyl-piperidine], the Ki in series [2] (setting [3]) came out at 3.7 ± 0.5 nM. The “ED50 (mg/kg/p.o.)” value in series [1] amounted to 0.3 mg/kg/p.o.
For the compound `CC(=O)c1ccc(OCCCN2CCC(C)CC2)cc1` [Example 68, 1-[3-(4-acetylphenoxy)-propyl]-4-methyl-piperidine], the inhibition constant (Ki) in series [2] (setting [3]) was 4.6 ± 2 nM. For the same compound, the “ED50 (mg/kg/p.o.)” value in series [1] is recorded as 0.5 mg/kg/p.o.
The like results for `CCC(=O)c1ccc(OCCCN2CCCCC2)cc1` [Example 69, 1-[3-(4-propionylphenoxy)-propyl]-piperidine] were, in that order, 4.7 ± 0.8 nM and 0.6 mg/kg/p.o.
The compound `CCCC(=O)c1ccc(OCCCN2CCCCC2)cc1` [Example 74, 1-[3-(4-buyrylphenoxy)propyl]piperidine] came in with an ED50 in series [1] of 0.21 mg/kg.
In turn, `O=C(c1ccc(OCCCN2CCCCC2)cc1)C1CC1` [Example 76, 1-[3-(4-cyclopropanecarbonylphenoxy)propyl]piperidine] displayed an ED50 in series [1] of 0.18 mg/kg.
The same measure, in the same setting: next, `CCC(=O)c1ccc(OCCCN2CCCC(C)C2)cc1` (stereo not drawn) [Example 88, 1-[3-(4-propionylphenoxy)propyl]-3-methylpiperidine]: 0.14 mg/kg.
